This is an account of results in patent US20210113650A1, “NANOMOLECULES FOR THE TREATMENT OF INFLAMMATORY BOWEL DISEASES” (Northwestern University, priority 2018, published 2021).

*: point of attachment. Palmitoyl = CCCCCCCCCCCCCCCC(=O)*

Type in all cases: in vivo, mouse
The test system of test [1] is SAMP1/YitFcsJ mice (Crohn's mice). Nature of the test: Cell/marker and cytokine expression in intestinal tissue after direct injection into inflamed intestinal lesions. The settings on record: 5 weeks post-surgery, compared to AIF-PAC and saline injected control animals. Here is the method:
(§1) In order to treat inflammatory lesions that have formed in the intestinal tracts, the following was performed:
(§2) Mice (10 weeks of age, female) were brought to the operating room where they were weighed, the abdomen shaved to remove hair, and given Buprenorphine (0.05 mg/kg) administered subcutaneously. At the time of surgery, anesthesia was induced with isoflurane (2%) with 02 and the mice were prepped with providine-iodine three times prior to initiating the operation. All mice received a 100 mg/kg dose of IP piperacillin/tazobactam IP followed by a midline abdominal incision (1.0-1.5 cm) made in the linea albea to gain access to the peritoneum. The intestines were then identified in the peritoneal cavity. Following intestinal exposure and identification of intestinal lesions, the anti-inflammatory peptide amphiphiles, [AIF-PA1 (treatment; 2 wt/%) or AIF-PAC (control; 2 wt/%)] or saline (control) were independently injected (20-40 μl) into multiple lesions of the several SAMP1/YitFcsJ mice. Following the surgical procedure, organs were relocated to their original anatomical positions. The abdomen was closed in 2 layers (muscle and skin) with 3-0 PDS suture. After recovery, they were placed back into cages with non-edible bedding and provided ad lib water and liquid diet for the first 7 post-operative days and then returned to ad lib chow. Animals were sacrificed at the 15 weeks of age. Animals were euthanized 5 weeks post-surgery and intestinal tissue was explanted, sectioned and stained with relevant inflammation based antibodies. Tissue samples were subsequently quantified, and the results are depicted in FIGS. 1-3.

The test system is the same in test [2]. The experiment in a line: Inflammatory intestinal lesion size after direct injection into inflamed intestinal lesions. The settings on record: 5 weeks post-injection, pre- versus post-injection, compared to AIF-PAC and saline injected control animals. The protocol:
as §1
as §2, with “After recovery, they were placed back into cages with non-edible bedding and provided ad lib water and liquid diet for the first 7 post-operative days and then returned to ad lib chow. Animals were sacrificed at the 15 weeks of age. Animals were euthanized 5 weeks post-surgery and intestinal tissue was explanted, sectioned and stained with relevant inflammation based antibodies.” left out

Test [3] shares this test system. Nature of the test: Cell/marker and cytokine expression in intestinal tissue after systemic (tail vein) injection. The settings on record: 5 weeks, compared to AIFC-PA6/LDT and untreated control animals. Here is the method: as §1
Mice (10 weeks of age, female; n=4-7 per group) were brought to the animal holding/surgical room where they were weighed. Animals were placed in a restrainer and independently injected with the aforementioned anti-inflammatory peptide amphiphiles, [AIF-PA1/LDT (treatment; 1 mM) or AIFC-PA6/LDT (control; 1 mM] or untreated/no treatment control group. Approximately 100 μl of solution was injected into the tail vein of the mice. Animals were sacrificed at the 15 weeks of age. Animals were euthanized 5 weeks post-surgery and intestinal tissue was explanted, sectioned and stained with relevant inflammation based antibodies and data was quantified. Gross tissue samples were examined for pathology. Quantified data and results are summarized in FIGS. 4-6.

As for “C16-VVVAAAEEEMQMKKVLDS (Palmitoyl-VVVAAAEEEMQMKKVLDS-NH2; SMILES CCCCCCCCCCCCCCCC(=O)N[C@H](C(=O)N[C@H](C(=O)N[C@H](C(=O)N[C@@H](C)C(=O)N[C@@H](C)C(=O)N[C@@H](C)C(=O)N[C@@H](CCC(=O)O)C(=O)N[C@@H](CCC(=O)O)C(=O)N[C@@H](CCC(=O)O)C(=O)N[C@@H](CCSC)C(=O)N[C@@H](CCC(N)=O)C(=O)N[C@@H](CCSC)C(=O)N[C@@H](CCCCN)C(=O)N[C@@H](CCCCN)C(=O)N[C@H](C(=O)N[C@@H](CC(C)C)C(=O)N[C@@H](CC(=O)O)C(=O)N[C@@H](CO)C(N)=O)C(C)C)C(C)C)C(C)C)C(C)C) [AIF-PA1]”, in test [1] (2 wt/%, 20-40 μl), the “CD68 (macrophages) expression” value is given as “statistically significant decrease”, the MAdCAM1 expression result is “statistically significant decrease”, the “anti-inflammatory cytokine IL-10 expression” value is given as “concomitant increase” and the “mast cell tryptase (mast cells) expression” value is listed as “statistically significant decrease”. For the same substance, in test [1], the IFNγ expression entry is recorded as “statistically significant decrease”, the IL-1β expression result is given as “statistically significant decrease”, the IL-13 expression entry was “statistically significant decrease” and the TNFα expression result is “statistically significant decrease”. Moreover, the “change in intestinal lesion size” value in test [2] is recorded as “statistically significant decrease”. In test [3], the IFNγ expression entry was “statistically significant decrease”, the IL-1β expression entry is on record as “statistically significant decrease”, the IL-13 expression result is “statistically significant decrease” and the TNFα expression entry was “statistically significant decrease”.
